Laboratory results reported in patent EP4755892A1, “KINESIN KIF18A INHIBITOR AND USE THEREOF” (Shanghai Apeiron Therapeutics Company Limited, priority 2023, dated 2025).
pIC50: −log10 of the molar value. Read-outs that look alike come from different tables or passages of the source.

What was measured:
[1] = target: T1, Human KIF18A (amino acid sequence 1-417) (Homo sapiens, UniProt Q8NI77); assay: Enzymatic Activity Test (ADP-Glo, microtubule-stimulated KIF18A ATPase); assay type: biochemical; details: 60 µg/mL microtubules, 25 µM ATP, 2.5 nM KIF18A protein, 120 min at ambient temperature, chemiluminescence; read-out: KIF 18A IC50
T1 construct: purchased Viva Biotech (Shanghai) Ltd
T1 sequence (Q8NI77 1-417): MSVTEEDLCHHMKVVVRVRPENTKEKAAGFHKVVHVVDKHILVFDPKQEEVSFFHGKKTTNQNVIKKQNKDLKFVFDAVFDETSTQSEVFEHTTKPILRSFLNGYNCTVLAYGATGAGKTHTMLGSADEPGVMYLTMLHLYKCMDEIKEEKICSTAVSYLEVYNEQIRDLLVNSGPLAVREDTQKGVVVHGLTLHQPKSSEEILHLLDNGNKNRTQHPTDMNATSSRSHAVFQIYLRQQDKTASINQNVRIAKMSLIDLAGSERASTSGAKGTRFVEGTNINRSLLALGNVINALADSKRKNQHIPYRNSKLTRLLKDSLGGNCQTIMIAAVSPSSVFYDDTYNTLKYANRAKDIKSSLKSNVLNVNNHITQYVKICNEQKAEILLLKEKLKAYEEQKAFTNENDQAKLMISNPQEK
Experimental: Assay 1: Enzymatic Activity Test
Materials: Human KIF18A (amino acid sequence 1-417) was purchased from Viva Biotech (Shanghai) Ltd.; the ADP-Glo™ protein kinase kit was acquired from Promega, USA; tubulin was sourced from Cytoskeleton, USA; and the 384-well assay plate and Envision multifunctional microplate reader were obtained from PerkinElmer, USA.
Enzymatic Activity Test: The compound powder was dissolved in DMSO to prepare a stock solution of 10 mM. Then gradient dilution was performed for the compounds in the microplate to achieve a final concentration of 0-10 µM. Then, 2.5 µL each of tubulin, compound, ATP, and KIF18A protein were added to the microplate in sequence for reaction at ambient temperature for 120 min. The final concentrations in the enzyme reaction were 60 µg/mL for microtubules, 25 µM for ATP, and 2.5 nM for KIF18A protein. After the enzyme reaction, 10 µL of ADP-GLO reaction reagent was added to each well and incubated at room temperature for 30 min. After that, 20 µL of detection reagent was added to each well and incubated at room temperature for 30 min in the dark. Finally, chemiluminescence detection was performed using the PerkinElmer Envision.

[2] = tested on: OVCAR3 cells; assay: Cell Proliferation Activity Test (CyQUANT Direct), OVCAR3; assay type: cell-based; details: compound 0-10 µM, 3 days, 0.2% DMSO, CyQUANT fluorescence, read-out: OVCAR-3 _IC50_nM
Experimental: Assay 2: Cell Proliferation Activity Test
Materials and Cells: OVCAR3 cells were purchased from Nanjing Cobioer Biosciences Co., Ltd. RPMI-1640 medium, fetal bovine serum, and the CyQUANT Direct Cell Proliferation Assay kit were purchased from Thermo Fisher Scientific, USA; 96-well cell culture plates were sourced from Coming, USA.
Cell Culture: OVCAR3 cells were cultured with RPMI-1640 medium containing 10% fetal bovine serum and incubated in a 5% CO2 incubator at 37°C. Only cells in the logarithmic growth phase could be used for the test.
Cell Proliferation Activity Test:
OVCAR3 cells were inoculated into a 96-well cell culture plate at 90 µL per well and incubated overnight in a 5% CO2 incubator at 37°C. The compound powder was dissolved in DMSO to prepare a stock solution of 10 mM. Then gradient dilution was performed for the compounds in the microplate to achieve a final concentration of 0-10 µM. 10 µL of cell culture medium containing compounds was added to each well to make the final DMSO content 0.2%. The cell plates were incubated in a 5% CO2 incubator at 37°C for 3 days. 100 µL of CyQUANT detection reagent was added to each well, reacted at 37°C for 60 min, and fluorescence detection was performed using the PerkinElmer Envision.

[3] = tested on: HT29 cells; assay: CyQuant Cell Proliferation Activity Test, HT29; assay type: cell-based; details: HT29 cells 2000 per well, initial concentration 3000 nM, 3-fold dilution, 3 days, 0.2% DMSO, read-out: HT29_IC50 _nM
Experimental: Assay 3: CyQuant Cell Proliferation Activity Test
Materials and Cells: HT29 cells were purchased from Nanjing Cobioer Biosciences Co., Ltd.; RPMI-1640 medium, fetal bovine serum, Trypsin-EDTA (0.25%), 96-well plates, and CyQuant reagents were purchased from ThermoFisher (USA); DMSO was purchased from SIGMA (USA).
Cell Culture: HT29 cells were cultured with RPMI-1640 containing 10% fetal bovine serum under the condition of 37°C and 5% CO2. Only cells in the logarithmic growth phase could be used for the test.
Cell Proliferation Activity Test: CyQuant reagent was used to detect the proliferation inhibitory activity of compounds on HT29 cells. The cell density was adjusted, and 100 µL per well was inoculated into a 96-well plate (HT29 at 2000 cells per well), then incubated overnight at 37°C and 5% CO2. Add compounds of various target concentrations (initial concentration of 3000 nM, 3-fold dilution, 9 concentration gradients), and make the DMSO content 0.2%. The cell plate was incubated at 37°C in 5% CO2 for 3 days. CyQuant reagent was added and incubated for 1 h. The plates were read by Envision, and IC50 was calculated using XLFIT.

| Structure (SMILES) | pIC50 [1] | pIC50 ([2]; Homo sapiens, OVCAR-3, 72 h) | pIC50 ([3]; Homo sapiens, HT-29, 72 h) | pIC50 [2] | pIC50 [3] |
| --- | --- | --- | --- | --- | --- |
| Cc1cc2nc(n1)N1CCC(F)(F)C(CC=CC3CCN(CC3)c3cc(NS(=O)(=O)CCO)ccc3C(=O)N2)C1 (stereo not drawn) [Example 19, (E)-N-(1^4,1^4-difluoro-2^6-methyl-4-oxo-3-aza-2(2,4)-pyrimidin-1(1,3),6(1,4)-dipiperidin-5(1,2)-benzeneheterocyclonon-7-en-5^4-yl)-2-hydroxyethane-1-sulfonamide] | 6.74 | 6.15 | 6.19 |  |  |
| Cc1cc2nc(n1)N1CCCC(CCCCC3CCN(CC3)c3cc(NS(=O)(=O)CCO)ccc3C(=O)N2)C1 (stereo not drawn) [Example 7, 2-Hydroxy-N-(2^6-methyl-4-oxo-3-aza-2(2,4)-pyrimidin-1(1,3),6(1,4)-dipiperidin-5 (1,2)-benzenecyclodecane-5^4-yl)ethane-1-sulfonamide] | 6.71 | 6.62 | 6.59 |  |  |
| Cc1cc2nc(n1)N1CCC(F)(F)C(C=CCC3CCN(CC3)c3cc(NS(=O)(=O)CCO)ccc3C(=O)N2)C1 (stereo not drawn) [Example 18B, N-(1^3R,E)-1^4,1^4-difluoro-2^6-methyl-4-oxo-3-aza-2(2,4)-pyrimidin-1(1,3),6(1,4)-dip iperidin-5(1,2)-benzeneheterocyclononane-8-en-5^4-yl)-2-hydroxyethane-1-sulfonamide] | 7.34 |  |  | 7.92 | 7.80 |
| O=C1Nc2cccc(c2)S(=O)(=O)NCCCCCC2CCN(CC2)c2cc(NS(=O)(=O)CCO)ccc21 [Example 13, N-(6,6-dioxo-3-oxo-6-thia-4,7-diaza-1(1,4)-piperidin-2(1,2),5(1,3)-diphenylheterocyclododecane-2^5-yl)-2-hydroxy-1-ethanesulfonamide] | 7.64 | 7.11 | 6.87 |  |  |
| Cc1cc2nc(n1)N1CCCC(CCCC3CCN(CC3)c3cc(NS(=O)(=O)CCO)ccc3C(=O)N2)C1 (stereo not drawn) [Example 3, 2-Hydroxy-N-(2^6-methyl-4-oxo-3-aza-2(2,4)-pyrimidin-1(1,3),6(1,4)-dipiperidin-5 (1,2)-benzeneheterocyclononane-5^4-yl)ethane-1-sulfonamide] | 7.01 |  |  | 7.12 | 7.17 |
| Cc1cc2nc(n1)N1CCCC(C=CCC3CCN(CC3)c3cc(NS(=O)(=O)CCO)ccc3C(=O)N2)C1 (stereo not drawn) [Example 1, 2-Hydroxy-N-(2^6-methyl-4-oxo-3-aza-2(2,4)-pyrimidin-1(1,3),6(1,4)-dipiperidin-5 (1,2)-benzeneheterocyclonon-8-en-5^4-yl)ethane-1-sulfonamide] | 7.21 |  |  | 7.85 | 7.77 |
| Cc1cc2nc(n1)N1CCC(F)(F)C(CCCC3CCN(CC3)c3cc(NS(=O)(=O)CCO)ccc3C(=O)N2)C1 (stereo not drawn) [Example 23A, N-((1^3S)-1^4,1^4-difluoro-2^6-methyl-4-oxo-3-aza-2(2,4)-pyrimidin-1(1,3),6(1,4)-dipiperidin-5(1,2)-benzeneheterocyclononane-5^4-yl)-2-hydroxyethane-1-sulfonamide] | 6.28 |  |  | 6.18 | 6.16 |
| O=C1Nc2cccc(c2)S(=O)(=O)NCCCC2CCN(CC2)c2cc(NS(=O)(=O)CCO)ccc21 [Example 16, N-(6,6-dioxo-3-oxo-6-thia-4,7-diaza-1(1,4)-piperidin-2(1,2),5(1,3)-diphenylheterocyclodecane-2^5-yl)-2-hydroxy-1-ethanesulfonamide] | 6.23 | < 5.52 | < 5.52 |  |  |
| O=C1Nc2cccc(c2)S(=O)(=O)NCC=CCCC2CCN(CC2)c2cc(NS(=O)(=O)CCO)ccc21 [Example 12, N-(6,6-dioxo-3-oxo-6-thia-4,7-diaza-1(1,4)-piperidin-2(1,2),5(1,3)-diphenylheterocyclododec-9-ene-2^5-yl)-2-hydroxy-1-ethanesulfonamide] | 7.55 | 6.91 | 6.60 |  |  |
| Cc1cc2nc(n1)N1CCCC(CCCC3CCN(CC3)c3cc(NS(=O)(=O)CCO)ccc3C(=O)N2)C1 (stereo not drawn) [Example 3B, 2-Hydroxy-N-((1^3S)-2^6-methyl-4-oxo-3-aza-2(2,4)-pyrimidin-1(1,3),6(1,4)-dipiperidin-5(1,2)-benzeneheterocyclononane-5^4-yl)ethane-1-sulfonamide] | 7.17 |  |  | 7.44 | 7.37 |
| Cc1cc2nc(n1)N1CCCC(CCCC3CCN(CC3)c3cc(NS(=O)(=O)CCO)ccc3C(=O)N2)C1 (stereo not drawn) [Example 3A, 2-Hydroxy-N-((1^3R)-2^6-methyl-4-oxo-3-aza-2(2,4)-pyrimidin-1(1,3),6(1,4)-dipiperidin-5(1,2)-benzeneheterocyclononane-5^4-yl)ethane-1-sulfonamide] | 7.59 |  |  | 5.79 | 5.88 |
| Cc1cc2nc(n1)N1CCCC(C=CCC3CCN(CC3)c3cc(NS(=O)(=O)CCO)ccc3C(=O)N2)C1 (stereo not drawn) [Example 1A, 2-Hydroxy-N-((1^3S,E)-2^6-methyl-4-oxo-3-aza-2(2,4)-pyrimidin-1(1,3),6(1,4)-dipiperidin-5(1,2)-benzoaza-8-en-5^4-yl)ethane-1-sulfonamide] | < 5.52 |  |  | < 5.52 | < 5.52 |
| Cc1cc2nc(n1)N1CCC(F)(F)C(C=CCC3CCN(CC3)c3cc(NS(=O)(=O)CCO)ccc3C(=O)N2)C1 (stereo not drawn) [Example 18A, N-((1^3S,E)-1^4,1^4-difluoro-2^1-methyl-4-oxo-3-aza-2(2,4)-pyrimidin-1(1,3),6(1,4)-dipiperidin-5(1,2)-benzeneheterocyclononane-8-en-5^4-yl)-2-hydroxyethane-1-sulfonamide] | < 5.52 |  |  | < 5.52 | < 5.52 |
| Cc1cc2nc(n1)N1CCC(F)(F)C(CCCC3CCN(CC3)c3cc(NS(=O)(=O)CCO)ccc3C(=O)N2)C1 (stereo not drawn) [Example 23, N-(1^4,1^4-difluoro-2^6-methyl-4-oxo-3-aza-2(2,4)-pyrimidin-1(1,3),6(1,4)-dipiperidin-5(1,2)-benzeneheterocyclononane-5^4-yl)-2-hydroxyethane-1-sulfonamide] | 6.99 |  |  | 7.28 | 7.33 |
| Cc1cc2nc(n1)N1CCCC(CCC3CCN(CC3)c3cc(NS(=O)(=O)CCO)ccc3C(=O)N2)C1 (stereo not drawn) [Example 5, 2-Hydroxy-N-(1^1-methyl-7-oxo-8-aza-1(2,4)-pyrimidin-2(1,3),5(4,1)-dipiperidin-6 (1,2)-benzeneheterocyclooct-6^5-yl)ethane-1-sulfonamide] | 7.42 | 6.91 | 6.88 |  |  |
